# Laboratory results as given in patent US20240024216A1, “METHODS AND MATERIALS FOR TREATING HAIR LOSS” (The Penn State Research Foundation, priority 2021, published 2024).
# System: human foreskin primary keratinocytes
# Assay: Keratinocyte scratch assay with 4-AP, NGF and NGF-antibody
# Type: cell-based
# Details: at 12 hours
# Description: Keratinocytes (7×10^4 cells/well) with KC medium were seeded on collagen-I pre-coated 96-well ImageLock microplate for 6 hours. For the drug treatment cells were pretreated with 4-AP prior to coating for 16-18 hours. Next, the wound scratch was created using IncuCyte automated system. After scratches the cells washed with PBS and the respective cells medium was added with individual 1 mM of 4-AP and 200 ng/ml of NGF (MyBioSource, Inc., Catlog No. MBS7114974) in keratinocytes medium and combination of 1 mM of 4-AP & 200 ng/mL NGF with or without 10 μg/ml of NGF-antibody (ThermoFisher Scientific, Catlog No. MA5-32067). The plate was incubated in Incucyte automated imaging system, wound healing and cells migration imaged for every hour until 24 hour and analyzed for percent of closure as described above procedure.
substance,measurement,setting,value
"NGF: nerve growth factor (NGF), MyBioSource, used at 200 ng/ml in keratinocyte scratch assay",scratch closure,"56% in control cultures, 1 mM 4-AP, 200 ng/ml NGF",75%
same,scratch closure with NGF-neutralizing antibody,plus 10 μg/ml NGF-antibody,67%
